Assay results taken from US20240409534A1, “CRYSTAL FORM OF METHYLPYRAZOLE-SUBSTITUTED PYRIDOIMIDAZOLE COMPOUND AND PREPARATION METHOD THEREFOR” (priority 2021, published 2024).
Where two headings read alike, the source gives them in different places.

Legend:
Ba/F3-TEL-FLT1 (VEGFR1) = assay: In vitro proliferation of BaF3 cell line, Ba/F3-TEL-FLT1; type: cell-based
Procedure: The mother solution was prepared into a total of 9 concentration gradients (10.0000 mM, 2.5000 mM, 0.6250 mM, 0.1563 mM, 0.0391 mM, 0.0098 mM, 0.0024 mM, 0.0006 mM and 0.0002 mM) in a 4-fold dilution and stored in a 96-well plate (Beaver, Suzhou), while the same volume of DMSO solvent was used as a negative control. • 1. Cell suspension in logarithmic growth phase was taken and inoculated in a white 96-well cell culture plate (Corning 3917, NY, USA) with a volume of 95 μL per well (2000 cells/well). • 2. Diluted medium-compound mixture was added in a volume of 5 μL per well, respectively, and the final concentration of DMSO in Ba/F3-TEL-FLT1 (VEGFR1), Ba/F3-TEL-FLT4 (VEGFR3) and Ba/F3-TEL-VEGFR2 cells was 0.1%.
• 3. The plate was incubated in a 37° C., 5% CO2 incubator for 72 h. • 4. The proliferation inhibitory activity and data analysis of the compound by CellTiter-Glo method were the same as in Experimental embodiment 1.

[1] = test system: gastric cancer cells SNU-16 with high expression of FGFR2; assay: Cell proliferation inhibition, CellTiter-Glo, SNU-16; type: cell-based; settings: Homo sapiens, 72 h, SNU-16, cultured for 3 days
Description: The compounds of the present disclosure can target and inhibit FGFR and VEGFR pathways, and inhibit tumor cell growth by inhibiting VEGF/VEGFR and FGF/FGFR signaling pathways. In this experiment, human non-small cell lung cancer cells NCI-H1581 with high expression of FGFR1, gastric cancer cells SNU-16 with high expression of FGFR2, and human bladder cancer cells RT112/84 with high expression of FGFR3 were selected. In this experiment, the inhibitory effect of compounds on cell proliferation was investigated by detecting the effect of the compounds of the present disclosure on the cell viability in vitro in the tumor cell lines NCI-H1581, SNU-16 and RT-112/84.
Regular passage, and cells in logarithmic growth phase were taken for plating.
• (1) Cells were stained with trypan blue and viable cells were counted. • (2) The cell concentration was adjusted to an appropriate concentration.
• (3) 90 μL of cell suspension per well was added to a culture plate, and cell-free culture solution was added to the blank control well. • (4) The plate was cultured overnight in a 37° C., 5% CO2 incubator with 100% relative humidity.
• (1) Preparation of 10× compound working solution: 78 μL of cell culture medium was added to a V-bottom 96-well plate, and 2 μL of compound was pipetted from a 400× compound storage plate and added to the cell culture medium of the 96-well plate. […]

[2] = Pharmacokinetic evaluation in SD rats, intravenous and intragastric (Experimental Embodiment 3); type: in vivo; settings: rat, plasma; for bioavailability: intragastric administration, read-out: drug bioavailability; for Cmax: read-out: peak concentration (Cmax); for Tmax: read-out: peak time (Tmax); for Vd: read-out: apparent volume of distribution at steady state (Vdss); for half-life: read-out: elimination half-life (T1/2) (converted); for clearance: read-out: plasma clearance (Cl)
[3] = po, female SD rats, single intragastric administration, 10 mg/kg
[4] = po, female SD rats, single intragastric administration, 30 mg/kg
[5] = po, female SD rats, single intragastric administration, 100 mg/kg
[6] = po, male SD rats, single intragastric administration, 10 mg/kg
[7] = po, male SD rats, single intragastric administration, 30 mg/kg
[8] = po, male SD rats, single intragastric administration, 100 mg/kg
[9] = female SD rats, single intravenous injection of 1 mg/kg
[10] = male SD rats, single intravenous injection of 1 mg/kg

Compound: CS(=O)(=O)O.Cn1cc(-c2ccn3c(-c4cc(NS(C)(=O)=O)nc(-c5ccc(F)cc5F)c4)cnc3c2)cn1
- Maximum inhibition (Ba/F3-TEL-FLT1 (VEGFR1); 72 h): 99.34%
- Minimum inhibition (Ba/F3-TEL-FLT1 (VEGFR1); 72 h): −12.05%
- IC50 (Ba/F3-TEL-FLT1 (VEGFR1); Mus musculus, BaF3, 72 h, read-out: Relative IC50): 46 nM
- IC50 [1]: 44.5 nM
- bioavailability ([2]; po, female SD rats, 10 mg/kg): 50.3%
- AUC(0-t) [2, 3]: 24.8 µM·h
- Cmax [2, 3]: 9.17 µM
- Tmax [2, 3]: 40 min
- AUC(0-t) [2, 4]: 65.6 µM·h
- Cmax [2, 4]: 24.5 µM
- Tmax [2, 4]: 60 min
- AUC(0-t) [2, 5]: 125 µM·h
- Cmax [2, 5]: 27.4 µM
- Tmax [2, 5]: 30 min
- bioavailability ([2]; po, male SD rats, 10 mg/kg): 18%
- AUC(0-t) [2, 6]: 7.15 µM·h
- Cmax [2, 6]: 3.78 µM
- Tmax [2, 6]: 30 min
- AUC(0-t) [2, 7]: 38.2 µM·h
- Cmax [2, 7]: 16.7 µM
- Tmax [2, 7]: 60 min
- AUC(0-t) [2, 8]: 113 µM·h
- Cmax [2, 8]: 19.9 µM
- Tmax [2, 8]: 50 min
- AUC(0-t) [2, 9]: 4.93 µM·h
- Vd [2, 9]: 0.366 L/kg
- half-life [2, 9]: 45.9 min
- clearance [2, 9]: 7.03 mL/min/kg
- AUC(0-t) [2, 10]: 3.98 µM·h
- Vd [2, 10]: 0.419 L/kg
- half-life [2, 10]: 40.5 min
- clearance [2, 10]: 8.78 mL/min/kg
